We go through three compounds from ChEMBL document CHEMBL4033758, “Systematic Data Mining Reveals Synergistic H3R/MCHR1 Ligands” (ACS Med Chem Lett, 2017).

The assay has as its target Histamine H3 receptor (Homo sapiens, UniProt Q9Y5N1). Kind of assay: Displacement of [3H]-N-alpha-methylhistamine from human H3R expressed in HEK293 cell membranes after 90 mins by liquid scintillation counting analysis.

Histamine H3 receptor, sequence (Q9Y5N1 whole entry): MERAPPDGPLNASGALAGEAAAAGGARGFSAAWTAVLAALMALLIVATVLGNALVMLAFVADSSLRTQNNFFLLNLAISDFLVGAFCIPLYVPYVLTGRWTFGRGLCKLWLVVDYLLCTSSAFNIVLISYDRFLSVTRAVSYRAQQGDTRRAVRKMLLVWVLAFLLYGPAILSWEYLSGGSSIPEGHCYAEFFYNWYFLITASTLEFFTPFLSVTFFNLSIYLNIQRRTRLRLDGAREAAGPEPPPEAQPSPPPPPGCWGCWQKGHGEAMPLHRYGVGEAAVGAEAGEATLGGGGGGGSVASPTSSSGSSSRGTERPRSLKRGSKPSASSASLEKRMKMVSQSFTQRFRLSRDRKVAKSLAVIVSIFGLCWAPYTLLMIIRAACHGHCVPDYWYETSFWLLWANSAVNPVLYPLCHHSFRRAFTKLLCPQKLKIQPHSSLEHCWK

By Ki is commonly meant a measure of affinity in units of concentration, obtained from inhibition or displacement. Take `COc1cc(-n2cnc3cc(-c4ccc(Cl)cc4)sc3c2=O)ccc1OCCN1CCCC1`: the affinity corresponds to a Ki of 208 nM.

In turn, `CCN1CCN(c2cc(C)c3cc(NC(=O)/C=C/c4ccc(OC)cc4)ccc3n2)CC1` showed a Ki of 10.6 nM.

Turning to `O=c1cc(OCc2ccc(F)cc2)ccn1-c1ccc(OCCN2CCCC2)cc1`, the Ki was 517 nM.
